According to patent publication EP1057825A1, “ISOFLAVANE DERIVATIVES AND IMMUNOPOTENTIATING COMPOSITIONS CONTAINING THE SAME” (SHIONOGI & CO., LTD., priority 1998, dated 1999):

System: mouse bone marrow cells
Experiment: Metabolism promoting action on mouse bone marrow cells (mitochondrial metabolism activity, MTT reduction method)
Format: cell-based, BALB/c mouse
Conditions: Mus musculus, Bone marrow cell, 120 h, 5 days, magnitude of metabolism, no test compound = one; for activity at 0.39 µg/mL: Test compound concentration 0.39 µg/ml; for activity at 0.78 µg/mL: Test compound concentration 0.78 µg/ml; for activity at 1.56 µg/mL: Test compound concentration 1.56 µg/ml; for activity at 3.13 µg/mL: Test compound concentration 3.13 µg/ml; for activity at 6.25 µg/mL: Test compound concentration 6.25 µg/ml; for activity at 12.5 µg/mL: Test compound concentration 12.5 µg/ml
Excerpt: The presence of an immunoactivating action can be determined if the magnitude of metabolism exceeds one, where the cellular metabolism of cells not having test compounds added thereto is defined as one.

| SMILES | activity at 0.39 µg/mL [%] | activity at 0.78 µg/mL [%] | activity at 1.56 µg/mL [%] | activity at 3.13 µg/mL [%] | activity at 6.25 µg/mL [%] | activity at 12.5 µg/mL [%] |
| --- | --- | --- | --- | --- | --- | --- |
| CCCCCCOc1cc2c(c(OC)c1CCC(C)C)CC(c1ccc(O)c(CCC(C)C)c1OCCCCCC)CO2 (stereo not drawn) [A-14] | 134 | 149 | 166 | 184 | 199 | 209 |
| CCCCCCCCCOc1ccc(C2COc3cc(O)c(CCC(C)C)c(OC)c3C2)c(OCCCCCCCCC)c1CCC(C)C (stereo not drawn) [A-17] | 116 | 117 | 126 | 164 | 177 | 156 |
| CCCCCCCCCOc1cc2c(c(OC)c1CCC(C)C)CC(c1ccc(O)c(CCC(C)C)c1OCCCCCCCCC)CO2 (stereo not drawn) [A-18] | 103 | 102 | 109 | 115 | 119 | 114 |
| COc1c2c(cc(OC(C)C)c1CCC(C)C)OCC(c1ccc(O)c(CCC(C)C)c1O)C2 (stereo not drawn) [A-19] | – | – | 120 | 128 | 126 | 53 |
| COc1c(CCC(C)C)c(O)cc2c1CC(c1ccc(OC(C)C)c(CCC(C)C)c1OC(C)C)CO2 (stereo not drawn) [A-20] | – | – | 135 | 134 | 116 | 94 |
| COc1c2c(cc(OC(C)C)c1CCC(C)C)OCC(c1ccc(O)c(CCC(C)C)c1OC(C)C)C2 (stereo not drawn) [A-21] | – | – | 131 | 122 | 89 | 44 |
| COc1c(CCC(C)C)c(O)cc2c1CC(c1ccc(O)c(CCC(C)C)c1OC(C)C)CO2 (stereo not drawn) [A-22] | – | – | 186 | 176 | 40 | 50 |
| COc1cc(OC)c2c(c1)OCC(c1ccc(OCc3ccccc3)cc1OCc1ccccc1)C2 (stereo not drawn) [B-1] | 114 | 116 | 136 | 157 | 188 | 178 |
| COc1cc(OC)c2c(c1)OCC(c1ccc(O)cc1O)C2 (stereo not drawn) [B-2] | 106 | 116 | 110 | 146 | 293 | 100 |
| COc1cc(OC)c2c(c1)OCC(c1ccc(OCC=C(C)C)cc1OCC=C(C)C)C2 (stereo not drawn) [B-3] | 114 | 111 | 110 | 162 | 183 | 204 |
| COc1cc(OC)c2c(c1)OCC(c1ccc(O)c(CC=C(C)C)c1O)C2 (stereo not drawn) [B-4] | 110 | 115 | 125 | 176 | 258 | 44 |
| COc1cc(OC)c2c(c1)OCC(c1ccc(O)cc1OCC=C(C)C)C2 (stereo not drawn) [B-5] | 100 | 115 | 165 | 245 | 205 | 31 |
| COc1cc(OC)c2c(c1)OCC(c1ccc(O[Si](C)(C)C(C)(C)C)cc1O[Si](C)(C)C(C)(C)C)C2 (stereo not drawn) [B-6] | 100 | 103 | 120 | 144 | 173 | 156 |
| COc1cc(O)c2c(c1)OCC(c1ccc(OCc3ccccc3)cc1OCc1ccccc1)C2 (stereo not drawn) [B-7] | 99 | 100 | 125 | 141 | 132 | 67 |
| COc1ccc(C2COc3cc(OC)cc(OC)c3C2)c(OC)c1 (stereo not drawn) [B-8] | 94 | 91 | 90 | 90 | 118 | 83 |
| COc1cc2c(c(OC)c1CC=C(C)C)CC(c1ccc(O)cc1O)CO2 (stereo not drawn) [B-9] | 110 | 133 | 150 | 165 | 110 | 25 |
| COc1cc2c(c(OC)c1C=CC(C)C)CC(c1ccc(O)cc1O)CO2 (stereo not drawn) [B-10] | 118 | 145 | 204 | 119 | 45 | 23 |
| COc1cc2c(c(OC)c1CCC(C)C)CC(c1ccc(O)cc1O)CO2 (stereo not drawn) [B-11] | 102 | 129 | 125 | 139 | 88 | 32 |
| COc1cc2c(c(OC)c1CC=C(C)C)CC(c1ccc(O[Si](C)(C)C(C)(C)C)cc1O[Si](C)(C)C(C)(C)C)CO2 (stereo not drawn) [B-12] | – | – | 122 | 122 | 129 | 136 |
| COc1cc2c(c(OC)c1CC=C(C)C)CC(c1ccc(OCc3ccccc3)cc1OCc1ccccc1)CO2 (stereo not drawn) [B-13] | – | – | 121 | 145 | 152 | 162 |
